molecular target: T1, TNIK (Homo sapiens, UniProt Q9UKE5); assay: ADP-Glo Kinase Assay, inhibition activity on TNIK; assay type: biochemical; conditions: not given
T1 construct: purchased Promega V4158
Experimental: The inhibition activities on TNIK, IKKε and TBK1 were measured by a luminometer, TNIK/IKKε/TBK1 Kinase Enzyme System (Promega, Ca# V4158; Invitrogen, PR8031B, Promega, Ca# V3991) and ADP-Glo Kinase Assay using ADP-Glo™ Kinase Analysis Kit (Promega, Ca# V9101) and a kinase reaction buffer [40 mM Tris(pH 7.5), 20 mM MgCl2, 0.1 mg/mL BSA] in accordance with the manufacturer's protocol.

T1 sequence (Q9UKE5 1-367 limits assumed): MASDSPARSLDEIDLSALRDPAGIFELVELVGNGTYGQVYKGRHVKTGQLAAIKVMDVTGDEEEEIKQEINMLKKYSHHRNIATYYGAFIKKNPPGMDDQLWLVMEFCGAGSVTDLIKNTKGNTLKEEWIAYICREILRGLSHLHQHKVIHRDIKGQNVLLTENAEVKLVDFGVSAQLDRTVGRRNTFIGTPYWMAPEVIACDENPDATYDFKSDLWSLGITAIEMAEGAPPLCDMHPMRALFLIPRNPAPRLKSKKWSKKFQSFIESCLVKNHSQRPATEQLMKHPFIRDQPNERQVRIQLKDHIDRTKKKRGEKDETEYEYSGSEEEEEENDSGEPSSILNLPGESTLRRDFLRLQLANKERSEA

| TNIK (μM) | Structure (SMILES) |
| --- | --- |
| Insoluble | COC(=O)c1ccc(-c2ccc(NC(=O)c3ccccc3)c3c2CNC3=O)cc1 [Example 10, methyl 4-(7-benzamido-1-oxoisoindolin-4-yl)benzo ate] |
| Insoluble | CC(=O)c1ccc(-c2ccc(NC(=O)c3ccccc3)c3c2CNC3=O)cc1 [Example 13, N-(7-(4-acetylphenyl)-3-oxoisoindolin-4-yl)benzamide] |
| Insoluble | O=C(Nc1ccc(-c2cc(Cl)ccc2Cl)c2c1C(=O)NC2)c1ccccc1 [Example 19, N-(7-(2,5-dichlorophenyl)-3-oxoisoindolin-4-yl)benzamide] |
| Insoluble | COc1cc(F)ccc1-c1ccc(NC(=O)c2ccccc2)c2c1CNC2=O [Example 22, N-(7-(4-fluoro-2-methoxyphenyl)-3-oxoisoindolin-4-yl)benzamide] |
| Insoluble | COc1ccc(-c2ccc(NC(=O)c3ccccc3)c3c2CNC3=O)c(OC)c1OC [Example 25, N-(3-oxo-7-(2,3,4-trimethoxyphenyl)isoindolin-4-yl)benzamide] |

same assay, conditions: read-out: TNIK

| IC50 [µM] | Structure (SMILES) |
| --- | --- |
| 3.1 | CCc1ccccc1-c1ccc(NC(=O)c2ccccc2)c2c1CNC2=O [Example 1, N-(7-(2-ethylphenyl)-3-oxoisoindolin-4-yl)benzamide] |
| > 20 | CC(C)c1cccc(-c2ccc(NC(=O)c3ccccc3)c3c2CNC3=O)c1 [Example 2, N-(7-(3-isopropylphenyl)-3-oxoisoindolin-4-yl)benzamide] |
| > 20 | CC(C)(C)c1ccc(-c2ccc(NC(=O)c3ccccc3)c3c2CNC3=O)cc1 [Example 3, N-(7-(4-(tert-butyl)phenyl)-3-oxoisoindolin-4-yl)benzamide] |
| 3 | O=C(Nc1ccc(-c2ccccc2OC(F)(F)F)c2c1C(=O)NC2)c1ccccc1 [Example 4, N-(3-oxo-7-(2-(trifluoromethoxy)phenyl)isoindolin-4-yl)benzamide] |
| > 20 | O=C(Nc1ccc(-c2cccc(OC(F)(F)F)c2)c2c1C(=O)NC2)c1ccccc1 [Example 5, N-(3-oxo-7-(3-(trifluoromethoxy)phenyl)isoindolin-4-yl)benzamide] |
| > 20 | CC(C)Oc1ccccc1-c1ccc(NC(=O)c2ccccc2)c2c1CNC2=O [Example 6, N-(7-(2-isopropoxyphenyl)-3-oxoisoindolin-4-yl)benzamide] |
| > 20 | CC(C)Oc1cccc(-c2ccc(NC(=O)c3ccccc3)c3c2CNC3=O)c1 [Example 7, N-(7-(3-isopropoxyphenyl)-3-oxoisoindolin-4-yl)benzamide] |
| > 20 | COC(=O)c1ccccc1-c1ccc(NC(=O)c2ccccc2)c2c1CNC2=O [Example 8, methyl 2-(7-benzamido-1-oxoisoindolin-4-yl)benzo ate] |
| > 20 | COC(=O)c1cccc(-c2ccc(NC(=O)c3ccccc3)c3c2CNC3=O)c1 [Example 9, methyl 3-(7-benzamido-1-oxoisoindolin-4-yl)benzo ate] |
| 9.5 | CC(=O)c1ccccc1-c1ccc(NC(=O)c2ccccc2)c2c1CNC2=O [Example 11, N-(7-(2-acetylphenyl)-3-oxoisoindolin-4-yl)benzamide] |
| > 20 | CC(=O)c1cccc(-c2ccc(NC(=O)c3ccccc3)c3c2CNC3=O)c1 [Example 12, N-(7-(3-acetylphenyl)-3-oxoisoindolin-4-yl)benzamide] |
| 1.1 | CSc1ccccc1-c1ccc(NC(=O)c2ccccc2)c2c1CNC2=O [Example 14, N-(7-(2-(methylthio)phenyl)-3-oxoisoindolin-4-yl)benzamide] |
| > 20 | O=C(Nc1ccc(-c2ccc(F)cc2F)c2c1C(=O)NC2)c1ccccc1 [Example 15, N-(7-(2,4-difluorophenyl)-3-oxoisoindolin-4-yl)benzamide] |
| 1.3 | Cc1cccc(-c2ccc(NC(=O)c3ccccc3)c3c2CNC3=O)c1C [Example 16, N-(7-(2,3-dimethylphenyl)-3-oxoisoindolin-4-yl)benzamide] |
| 1 | O=C(Nc1ccc(-c2cccc(Cl)c2Cl)c2c1C(=O)NC2)c1ccccc1 [Example 17, N-(7-(2,3-dichlorophenyl)-3-oxoisoindolin-4-yl)benzamide] |
| > 20 | O=C(Nc1ccc(-c2ccc(Cl)cc2Cl)c2c1C(=O)NC2)c1ccccc1 [Example 18, N-(7-(2,4-dichlorophenyl)-3-oxoisoindolin-4-yl)benzamide] |
| > 20 | O=C(Nc1ccc(-c2ccc(Cl)c(Cl)c2)c2c1C(=O)NC2)c1ccccc1 [Example 20, N-(7-(3,4-dichlorophenyl)-3-oxoisoindolin-4-yl)benzamide] |
| > 20 | O=C(Nc1ccc(-c2cc(Cl)cc(Cl)c2)c2c1C(=O)NC2)c1ccccc1 [Example 21, N-(7-(3,5-dichlorophenyl)-3-oxoisoindolin-4-yl)benzamide] |
| 8.9 | O=C(Nc1ccc(-c2cccc(F)c2Cl)c2c1C(=O)NC2)c1ccccc1 [Example 23, N-(7-(2-chloro-3-fluorophenyl)-3-oxoisoindolin-4-yl)benzamide] |
| > 20 | COc1cccc(-c2ccc(NC(=O)c3ccccc3)c3c2CNC3=O)c1F [Example 24, N-(7-(2-fluoro-3-methoxyphenyl)-3-oxoisoindolin-4-yl)benzamide] |
| 3.8 | Cc1ccc(-c2ccc(NC(=O)c3ccccc3)c3c2CNC3=O)cc1C [Example 26, N-(7-(3,4-dimethylphenyl)-3-oxoisoindolin-4-yl)benzamide] |

| IC50 [µM] | Structure (SMILES) |
| --- | --- |
| 3 | Cc1cc(C)cc(-c2ccc(NC(=O)c3ccccc3)c3c2CNC3=O)c1 [Example 27, N-(7-(3,5-dimethylphenyl)-3-oxoisoindolin-4-yl)benzamide] |
| 1.7 | Cc1cccc(C)c1-c1ccc(NC(=O)c2ccccc2)c2c1CNC2=O [Example 28, N-(7-(2,6-dimethylphenyl)-3-oxoisoindolin-4-yl)benzamide] |
| 1.8 | CCc1ccc(NC(=O)c2ccccc2)c2c1CNC2=O [Example 29, N-(7-ethyl-3-oxoisoindolin-4-yl)benzamide] |
| > 20 | O=C(Nc1ccc(-c2cc(F)cc(F)c2)c2c1C(=O)NC2)c1ccccc1 [Example 30, N-(7-(3,5-difluorophenyl)-3-oxoisoindolin-4-yl)benzamide] |
| 1.6 | Cc1ccc(C)c(-c2ccc(NC(=O)c3ccccc3)c3c2CNC3=O)c1 [Example 31, N-(7-(2,5-dimethylphenyl)-3-oxoisoindolin-4-yl)benzamide] |
| 1 | O=C(Nc1ccc(-c2cc(F)ccc2F)c2c1C(=O)NC2)c1ccccc1 [Example 32, N-(7-(2,5-difluorophenyl)-3-oxoisoindolin-4-yl)benzamide] |
| 3.7 | O=C(Nc1ccc(-c2ccc(F)c(F)c2)c2c1C(=O)NC2)c1ccccc1 [Example 33, N-(7-(3,4-difluorophenyl)-3-oxoisoindolin-4-yl)benzamide] |
| 0.54 | O=C(Nc1ccc(-c2cccc(F)c2F)c2c1C(=O)NC2)c1ccccc1 [Example 34, N-(7-(2,3-difluorophenyl)-3-oxoisoindolin-4-yl)benzamide] |
| 8.6 | CCCCc1ccc(NC(=O)c2ccccc2)c2c1CNC2=O [Example 35, N-(7-butyl-3-oxoisoindolin-4-yl)benzamide] |
| > 20 | CCCc1ccc(NC(=O)c2ccc(F)cc2)c2c1CNC2=O [Example 36, 4-fluoro-N-(3-oxo-7-propylisoindolin-4-yl)benzamide] |
| 6.1 | Cc1ccc(NC(=O)c2ccccc2)c2c1CNC2=O [Example 37, N-(7-methyl-3-oxoisoindolin-4-yl)benzamide] |
| 1.7 | Cc1ccc(-c2ccc(NC(=O)c3ccccc3)c3c2CNC3=O)c(C)c1 [Example 38, N-(7-(2,4-dimethylphenyl)-3-oxoisoindolin-4-yl)benzamide] |
| 6.1 | CCc1ccc(-c2ccc(NC(=O)c3ccccc3)c3c2CNC3=O)cc1 [Example 39, N-(7-(4-ethylphenyl)-3-oxoisoindolin-4-yl)benzamide] |
| > 20 | CC(C)Oc1ccc(-c2ccc(NC(=O)c3ccccc3)c3c2CNC3=O)cc1 [Example 40, N-(7-(4-isopropoxyphenyl)-3-oxoisoindolin-4-yl)benzamide] |
| 1.2 | CSc1ccc(-c2ccc(NC(=O)c3ccccc3)c3c2CNC3=O)cc1 [Example 41, N-(7-(4-(methylthio)phenyl)-3-oxoisoindolin-4-yl)benzamide] |
| 3.7 | CCc1cccc(-c2ccc(NC(=O)c3ccccc3)c3c2CNC3=O)c1 [Example 42, N-(7-(3-ethylphenyl)-3-oxoisoindolin-4-yl)benzamide] |
| > 20 | CCCOc1ccccc1-c1ccc(NC(=O)c2ccccc2)c2c1CNC2=O [Example 43, N-(3-oxo-7-(2-propoxyphenyl)isoindolin-4-yl)benzamide] |
| > 20 | CCCOc1cccc(-c2ccc(NC(=O)c3ccccc3)c3c2CNC3=O)c1 [Example 44, N-(3-oxo-7-(3-propoxyphenyl)isoindolin-4-yl)benzamide] |
| > 20 | CS(=O)(=O)c1ccccc1-c1ccc(NC(=O)c2ccccc2)c2c1CNC2=O [Example 47, N-(7-(2-(methylsulfonyl)phenyl)-3-oxoisoindolin-4-yl) benzamide] |
| 0.49 | COc1c(F)cccc1-c1ccc(NC(=O)c2ccccc2)c2c1CNC2=O [Example 48, N-(7-(3-fluoro-2-methoxyphenyl)-3-oxoisoindolin-4-yl) benzamide] |
| > 20 | COc1cc(Cl)ccc1-c1ccc(NC(=O)c2ccccc2)c2c1CNC2=O [Example 49, N-(7-(4-chloro-2-methoxyphenyl)-3-oxoisoindolin-4-yl) benzamide] |

| Structure (SMILES) | IC50 [µM] |
| --- | --- |
| CCCCOc1ccccc1-c1ccc(NC(=O)c2ccccc2)c2c1CNC2=O [Example 45, N-(7-(2-butoxyphenyl)-3-oxoisoindolin-4-yl)benzamide] | > 20 |
| CCCCOc1cccc(-c2ccc(NC(=O)c3ccccc3)c3c2CNC3=O)c1 [Example 46, N-(7-(3-butoxyphenyl)-3-oxoisoindolin-4-yl)benzamide] | > 20 |
